This passage reports inhibition results from patent publication EP0229128B1, “DERIVATIVES OF GLYCERO-3(2)-PHOSPHO-L-SERINE AND PHARMACEUTICAL PREPARATIONS CONTAINING THEM” (CL PHARMA AKTIENGESELLSCHAFT, priority 1985, dated 1987).

In this assay the test system is Ehrlich-Ascites-Tumorzellen. As to the kind of experiment: Inhibition of proliferation of Ehrlich ascites tumour cells in vitro. The class given is cell-based. The note with it: read-out: Hemmung der Proliferation (%) von Ehrlich-Ascites-Tumorzellen in vitro, % Hemmung; for inhibition at 1 µM: Konzentration 1 µM; for inhibition at 2 µM: Konzentration 2 µM; for inhibition at 5 µM: Konzentration 5 µM; for inhibition at 10 µM: Konzentration 10 µM; for inhibition at 20 µM: Konzentration 20 µM; for inhibition at 100 µM: Konzentration 100 µM. The source says:
Die Verbindungen der allgemeinen Formel I und Salze davon sind biologisch hochaktiv und besitzen insbesondere eine ausgeprägte Antitumorwirksamkeit. Diese wertvollen pharmakologischen Eigenschaften können in vitro und in vivo unter Verwendung von Standardmethoden nachgewiesen werden, beispielsweise indem die Hemmung der Proliferation von Ehrlich-Ascites-Tumorzellen in vitro unter Einwirkung von Glycero-3(2)-phospho-L-serinderivaten der allgemeinen Formel I bestimmt wird. • In diesem Test (Tabelle I) bewirken die erfindungsgemäßen Verbindungen, beispielsweise • 1-0-Hexadecyl-2-chlor-2-desoxy-glycero-3-phospho-L-serin (Verbindung Nr. 1) • 1-0-Hexadecyl-2-fluor-2-desoxy-glycero-3-phospho-L-serin (Verbindung Nr. 2) • 1-Chlor-1-desoxy-3-0-hexadecyl-glycero-2-phospho-L-serin (Verbindung Nr. 3) • 1-0-(2,2,2-Trifluorethy)-2-0-hexadecyl-glycero-3-phospho-L-serin (Verbindung Nr. 4), schon in sehr geringen Konzentrationen eine signifikante Hemmung des Zellwachstums von Ehrlich-Ascites-Tumorzellen.

Regarding `CCCCCCCCCCCCCCCCCCOCC(COP(=O)([O-])OCC[N+](C)(C)C)OC` (stereo not shown) [V, 1-O-Octadecyl-2-O-methyl-glycero-3-phosphocholin, reference compound], the inhibition at 1 µM came to 0%, the inhibition at 2 µM stood at 0%, the inhibition at 5 µM was found to be 4% and the inhibition at 10 µM was 23%. Also, the inhibition at 20 µM is 62% and the inhibition at 100 µM is 100%.

`CCCCCCCCCCCCCCCCOCC(Cl)COP(=O)(O)OC[C@H](N)C(=O)O` (stereo partly drawn) [Verbindung Nr. 1, 1-O-Hexadecyl-2-chlor-2-desoxy-glycero-3-phospho-L-serin]: the inhibition at 1 µM came out at 16%, the inhibition at 2 µM turned out to be 10%, the inhibition at 5 µM stood at 30% and the inhibition at 10 µM worked out at 55%. The inhibition at 20 µM was 80% and the inhibition at 100 µM worked out at 95%.

Turning to `CCCCCCCCCCCCCCCCOCC(F)COP(=O)(O)OC[C@H](N)C(=O)O` (stereo partly drawn) [Verbindung Nr. 2, 1-O-Hexadecyl-2-fluor-2-desoxy-glycero-3-phospho-L-serin], the inhibition at 1 µM came out at 10%, the inhibition at 2 µM was 13%, the inhibition at 5 µM was found to be 18% and the inhibition at 10 µM was 51%. Besides, the inhibition at 20 µM worked out at 82% and the inhibition at 100 µM was 95%.

As for `CCCCCCCCCCCCCCCCOCC(CCl)OP(=O)(O)OC[C@H](N)C(=O)O` (stereo partly drawn) [Verbindung Nr. 3, 1-Chlor-1-desoxy-3-O-hexadecyl-glycero-2-phospho-L-serin], the inhibition at 1 µM was 15%, the inhibition at 2 µM was 17%, the inhibition at 5 µM turned out to be 38% and the inhibition at 10 µM was found to be 68%. The inhibition at 20 µM is 81% and the inhibition at 100 µM stood at 93%.

Take `CCCCCCCCCCCCCCCCOC(COCC(F)(F)F)COP(=O)(O)OC[C@H](N)C(=O)O` (stereo partly drawn) [Verbindung Nr. 4, 1-O-(2,2,2-Trifluorethyl)-2-O-hexadecyl-glycero-3-phospho-L-serin]: the inhibition at 5 µM came to 10%, the inhibition at 10 µM was found to be 36%, the inhibition at 20 µM was 74% and the inhibition at 100 µM came out at 100%.
